# Counter-ions that a name gives are not always drawn.
# What was measured:
# [1] = tested on: thermolysin; conditions: J. Am. Chem. Soc. 1991, 113, 297-307; cited from earlier work
# [2] = target: T1, NEP (Rattus norvegicus, UniProt P07861); assay: NEP-inhibitory activity, in vitro (kidney cortex membranes, [3H][Leu5]-enkephaline substrate); type: biochemical, male Sprague-Dawley rats; conditions: rat kidney cortex membranes 5 μg/ml of proteins; [3H][Leu5]-enkephaline 15 nM; pH 7.4; 20 minutes at 30° C.; tested as lithium or sodium salts
# T1 construct: Membranes from kidney cortex were prepared; from tissue; host or cells: kidney cortex membranes of male Sprague-Dawley rats
# T1 sequence (P07861 1-750): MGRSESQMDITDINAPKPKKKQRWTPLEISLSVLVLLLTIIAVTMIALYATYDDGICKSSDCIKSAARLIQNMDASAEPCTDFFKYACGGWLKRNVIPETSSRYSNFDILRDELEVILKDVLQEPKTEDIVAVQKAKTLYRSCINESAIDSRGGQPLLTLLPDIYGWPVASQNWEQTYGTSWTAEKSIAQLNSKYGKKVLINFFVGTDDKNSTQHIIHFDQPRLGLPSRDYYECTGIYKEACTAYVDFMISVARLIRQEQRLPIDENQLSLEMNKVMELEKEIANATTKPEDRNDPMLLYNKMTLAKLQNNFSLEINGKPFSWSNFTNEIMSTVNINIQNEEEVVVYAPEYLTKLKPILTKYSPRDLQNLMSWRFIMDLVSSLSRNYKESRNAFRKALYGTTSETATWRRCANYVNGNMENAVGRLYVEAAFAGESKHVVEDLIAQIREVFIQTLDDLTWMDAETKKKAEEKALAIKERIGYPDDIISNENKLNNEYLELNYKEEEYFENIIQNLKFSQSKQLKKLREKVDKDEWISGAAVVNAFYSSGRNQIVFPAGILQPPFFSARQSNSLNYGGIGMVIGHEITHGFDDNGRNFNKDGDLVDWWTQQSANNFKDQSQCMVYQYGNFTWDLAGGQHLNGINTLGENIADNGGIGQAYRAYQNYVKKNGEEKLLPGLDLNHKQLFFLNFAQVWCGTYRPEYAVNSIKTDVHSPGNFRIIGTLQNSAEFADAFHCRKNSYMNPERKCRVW
# Protocol: The NEP-inhibitory activity was evaluated according to the method reported in the literature by C. Llorens et al., in Eur. J. Pharmacol., 69, (1981), 113-116.
# Membranes from kidney cortex were prepared according to the following procedure.
# By working at 0°-4° C., kidneys were removed from male Sprague-Dawley rats weighing approximately 300 g.
# Cortex was carefully dissected, finely minced and suspended in a homogenization buffer (10 mM sodium phosphate pH 7.4 containing 1 mM MgCl2, 30 mM NaCl, 0.02% NAN3) 1:15 weight/volume.
# The tissue was then homogenized for 30 seconds using an Ultra-Turrax homogenizer.
# Approximately 10 ml of homogenate were layered over 10 ml of sucrose (41% weight/volume) and centrifuged at 31200 rpm for 30 minutes at 4° C. in a fixed angle rotor.
# The membranes were collected from the buffer/sucrose interface, washed twice with 50 mM TRIS/HCl buffer (pH 7.4) and resuspended into the same buffer for storage.
# The membranes were stored in small aliquots at -80° C. until use. The NEP-inhibitory activity was evaluated by using the following method.
# Aliquots of the membrane suspension prepared as above described (concentration 5 μg/ml of proteins) were preincubated in the presence of an aminopeptidase inhibitor (Bestatin--1 mM) for 10 minutes at 30° C.
# [^3 H][Leu^5 ]-enkephaline (15 nM) and buffer TRIS/HCl pH 7.4 (50 mM) were added in order to obtain a final volume of 100 μl. Incubation (20 minutes at 30° C.) was stopped by adding HCl 0.1M (100 μl).
# The formation of the metabolite [^3 H]Tyr-Gly-Gly was quantified by chromatography on polystyrene columns (Porapak Q). The percentage of inhibition of the metabolite formation in the membrane preparations treated with the compounds of formula I, in comparison to the untreated membrane preparations, was expressed as IC50 value (nM).
# (§1) The compounds of formula I were tested in the form of lithium or sodium salts.
# [3] = target: T2, ACE (Oryctolagus cuniculus, UniProt P12822); assay: ACE-inhibitory activity, in vitro (FAPGG substrate); type: biochemical; conditions: ACE purified from lung rabbit; FAPGG 0.8 mM; 37° C.; 340 nm, 5 minutes; tested as lithium or sodium salts
# T2 construct: purchased SIGMA; host or cells: rabbit lung (purified)
# T2 sequence (P12822 34-1310): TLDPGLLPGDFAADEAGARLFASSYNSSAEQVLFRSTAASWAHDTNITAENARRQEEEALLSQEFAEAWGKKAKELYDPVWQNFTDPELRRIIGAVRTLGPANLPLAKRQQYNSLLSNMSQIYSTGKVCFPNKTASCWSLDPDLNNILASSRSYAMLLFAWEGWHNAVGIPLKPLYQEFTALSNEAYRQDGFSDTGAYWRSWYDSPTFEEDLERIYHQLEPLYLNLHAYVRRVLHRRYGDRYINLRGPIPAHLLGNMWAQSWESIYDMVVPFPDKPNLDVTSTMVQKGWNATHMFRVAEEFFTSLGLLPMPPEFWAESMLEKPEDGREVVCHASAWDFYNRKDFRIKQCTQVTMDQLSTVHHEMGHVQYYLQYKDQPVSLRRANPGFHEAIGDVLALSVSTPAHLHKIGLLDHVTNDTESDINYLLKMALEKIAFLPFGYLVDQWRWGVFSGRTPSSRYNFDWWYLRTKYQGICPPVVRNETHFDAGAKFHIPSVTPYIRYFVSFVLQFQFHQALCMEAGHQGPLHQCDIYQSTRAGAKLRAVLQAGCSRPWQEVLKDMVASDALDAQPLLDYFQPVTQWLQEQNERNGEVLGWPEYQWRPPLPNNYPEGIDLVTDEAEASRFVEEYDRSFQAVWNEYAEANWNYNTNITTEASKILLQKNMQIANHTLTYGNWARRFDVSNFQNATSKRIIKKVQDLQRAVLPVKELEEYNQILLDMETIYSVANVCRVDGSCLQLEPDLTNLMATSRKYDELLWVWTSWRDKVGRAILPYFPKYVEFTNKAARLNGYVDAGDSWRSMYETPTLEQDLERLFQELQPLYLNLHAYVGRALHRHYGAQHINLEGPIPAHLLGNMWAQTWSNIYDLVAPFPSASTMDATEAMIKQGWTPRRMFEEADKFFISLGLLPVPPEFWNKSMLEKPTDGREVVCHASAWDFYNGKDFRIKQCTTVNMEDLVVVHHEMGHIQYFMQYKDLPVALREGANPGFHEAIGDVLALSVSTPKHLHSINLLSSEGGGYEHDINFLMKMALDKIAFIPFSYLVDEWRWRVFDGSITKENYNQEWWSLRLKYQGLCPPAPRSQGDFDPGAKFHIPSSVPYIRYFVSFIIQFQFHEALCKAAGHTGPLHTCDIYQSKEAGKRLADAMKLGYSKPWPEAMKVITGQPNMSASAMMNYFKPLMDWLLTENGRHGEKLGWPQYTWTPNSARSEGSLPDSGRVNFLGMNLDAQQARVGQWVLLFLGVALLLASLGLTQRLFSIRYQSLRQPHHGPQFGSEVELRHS
# Protocol: The ACE-inhibitory activity was evaluated according to the method reported in the literature by B. Holmquist et al., in Analytical Biochemistry 95, 540-548 (1979).
# […] of ACE (250 mU/ml purified by lung rabbit, EC 3.4.15.1 SIGMA) with 50 μl of the compound of formula I were preincubated in thermostated cuvettes at 37° C.
# The reaction was started by adding furylacryloylphenylalanylglycylglycine 0.8 mM (FAPGG-SIGMA).
# Contemporaneously, by using a Beckman DU-50 spectrophotometer provided with a program for calculating delta A/minutes and regression coefficients of the enzyme kinetics curves, the absorbance at 340 nm was recorded in continuo for 5 minutes.
# The percentage of the enzyme inhibition in the preparations treated with the compounds of formula I with respect to the untreated preparations was expressed as IC50 value (nM).
# as §1
IC50 [2],IC50 [3],Structure (SMILES),inhibitory activity towards thermolysin (in words) [1]
7.7 nM,4.6 nM,"CC(C)CC(CP(=O)(O)CNC(=O)c1ccccc1)C(=O)N[C@@H](Cc1ccc(-c2ccccc2)cc1)C(=O)O (stereo partly drawn) [Compound 6, N-[3-[(benzoylaminomethyl)(hydroxy)phosphinyl]-2-isobutyl-propionyl]-(1,1'-biphenyl-4-yl)-L-alanine]",
30.1 nM,183 nM,"CC(C)CC(CP(=O)(O)CNC(=O)Cc1ccccc1)C(=O)N[C@@H](Cc1ccc(-c2ccccc2)cc1)C(=O)O (stereo partly drawn) [Compound 7, N-[3-[(phenylacetylaminomethyl)(hydroxy)phosphinyl]-2-isobutyl-propionyl]-(1,1'-biphenyl-4-yl)-L-alanine]",

# Further lines, the compound ahead of its results:
Structure (SMILES),IC50 [2],IC50 [3],inhibitory activity towards thermolysin (in words) [1]
CC(C)CC(CP(=O)(O)CNC(=O)OCc1ccccc1)C(=O)NC(Cc1ccccc1)C(=O)O (stereo not drawn),,,endowed with inhibitory activity towards thermolysin
"CC(C)CC(CP(=O)(O)CCCc1ccccc1)C(=O)N[C@@H](Cc1ccc(-c2ccccc2)cc1)C(=O)O (stereo partly drawn) [Compound 1, N-[3-[(3-phenylpropyl)(hydroxy)phosphinyl]-2-isobutyl-propionyl]-(1,1'-biphenyl-4-yl)-L-alanine dilithium salt]",368 nM,70 nM,
"CC(C)CC(CP(=O)(O)CCCCc1ccccc1)C(=O)N[C@@H](Cc1ccc(-c2ccccc2)cc1)C(=O)O (stereo partly drawn) [Compound 2, N-[3-[(4-phenylbutyl)(hydroxy)phosphinyl]-2-isobutyl-propionyl]-(1,1'-biphenyl-4-yl)-L-alanine disodium salt]",220 nM,24 nM,

# From patent US5739123A, “Phosphinic acid derivatives with metallopeptidase inhibitory activity” (Zambon Group S.p.A., priority 1994, dated 1998)
